One compound from patent US10966976B2, “Methods for inducing an immune response by inhibition of nonsense mediated decay” (MOONSHOT PHARMA LLC, priority 2015, dated 2021) can be followed below.

Structures are written as SMILES.

The test system of assay [1] is CD3+ immune cells infiltrating tumor tissue. In words: Immunohistochemistry of sectioned tumor tissue, immune cell infiltration. As to conditions: FFPE tumor sections; FIG. 4. It counts as in vivo, C57BL/6 mice. Here is the method: Immunohistochemistry (IHC): Formalin-fixed paraffin-embedded (FFPE) tissue from tumor samples were sectioned to 4 urn. Antigen retrieval (AR) was conducted at 100° C., in EDTA buffer, at pH 9.0 for 20 min. Primary antibody (diluted with validated concentration), RT 60 min+ secondary antibody (ready-to-use), RT 60 min+Bond Polymer Refine Detection.

Assay [2] relates to MC38 tumor cells. In words: MC38 subcutaneous syngeneic tumor model, tumor volume by caliper. It counts as in vivo, C57BL/6 mice. Also noted: Percent inhibition of tumor volume: concentration or dose not given beside the values. As to conditions: for Percent inhibition of tumor volume: vs vehicle group, negative values indicate an increase in tumor volume. Here is the method:
This Example evaluated the effectiveness of an NMDI alone and in combination with one or more immunotherapy agents for the treatment of tumor-bearing C57BL/6 mice.
Animals: Female 6-8 week old (estimated age at inoculation) C57BL/6 mice were obtained from Shanghai Lingchang Bio-Technology Co. Ltd (LC, Shanghai, China). The animals were housed at 20-26° C. with a 12 hours light and 12 hours darkness cycle.
Cell Culture: MC38 tumor cells were maintained in vitro as a monolayer culture in DMEM medium supplemented with 10% fetal bovine serum at 37° C. in an atmosphere of 5% CO2 in air. The tumor cells were routinely subcultured twice weekly. Cells in an exponential growth phase were harvested and counted for tumor inoculation.
Therapeutic compounds: Anti-PD-1 and anti-CTLA-4 antibodies were obtained from BioXCell as was an anti-CD8 antibody. The nonsense mediated decay inhibitor NMDI14 (4,5-Dimethyl-2-[[2-(1,2,3,4-tetrahydro-6,7-dimethyl-3-oxo-2-quinoxalinyl)acetyl]amino]-3-thiophenecarboxylic acid ethyl ester, Ethyl 2-{[(6,7-dimethyl-3-oxo-1,2,3,4-tetrahydro-2-quinoxalinyl)acetyl]amino}-4,5-dimethyl-3-thiophenecarboxylate) was obtained from ChemBridge Corp. (La Jolla, Calif.).
Tumor Inoculation: Each mouse was inoculated subcutaneously at the right lower flank region with MC38 tumor cells (1×10^6) in 0.1 mL of PBS for tumor development. The treatments were started when the mean tumor size reaches approximately 50 mm^3. The date of tumor cell inoculation was denoted as day 0.
Group assignment: Before grouping and treatment, all animals were weighed and the tumor volumes measured using a caliper. Tumor volume was used as numeric parameter to randomize selected animals into specified groups in order to minimize systematic error. The grouping was performed by using StudyDirector™ software (Studylog Systems, Inc. CA, USA). One optimal randomization design (generated by Matched distribution) showing minimal group to group variation in tumor volume was selected for group allocation.
After tumor cell inoculation, the animals were checked daily for morbidity and mortality as well as any effects of tumor growth and treatments on normal behavior such as mobility, visual estimation of food and water consumption, body weight gain/loss, eye/hair matting and any other abnormal effect. Tumor volumes were measured twice weekly at least in two dimensions using a caliper, and the volume expressed in mm^3 using the formula: V=0.5 a×b^2 where a and b are the long and short diameters of the tumor, respectively.

Consider `CCOC(=O)c1c(NC(=O)CC2Nc3cc(C)c(C)cc3NC2=O)sc(C)c1C` (stereo not drawn) [NMDI14, 4,5-Dimethyl-2-[[2-(1,2,3,4-tetrahydro-6,7-dimethyl-3-oxo-2-quinoxalinyl)acetyl]amino]-3-thiophenecarboxylic acid ethyl ester], for which, in assay [1], the “CD3+ immune cell infiltration of tumor tissue (IHC, in words)” value is listed as “significant numbers of CD3+ immune cells infiltrating tumor tissue”. Besides, the “Percent inhibition of tumor volume” value is −0.11% in assay [2] (Day 9); 14.08% in assay [2] (Day 12); −4.42% in assay [2] (Day 15); 6.19% in assay [2] (Day 18); 15.14% in assay [2] (Day 22); 19.44% in assay [2] (Day 25). Also, the “Percent inhibition of tumor volume” value in assay [2] (Day 29) was 20.58%; in assay [2] (Day 32), 21.74%. Also, the Mean tumor volume in assay [2] (Day 9 after inoculation, MC38 tumor-bearing C57BL/6 mice, i.p., NMDI14 20 mg/kg QDx3 weeks, antibodies 10 mg/kg (anti-CD8 200 ug/mouse) BIW x 3 weeks, n=8) was determined as 52.02 mm^3; in assay [2] (Day 12, same model and dosing (Table 2)), 72.22 mm^3; in assay [2] (Day 15, same model and dosing (Table 2)) it was 135.90 mm^3; in assay [2] (Day 18, same model and dosing (Table 2)) it was 270.73 mm^3; in assay [2] (Day 22, same model and dosing (Table 2)) it was 405.71 mm^3; in assay [2] (Day 25, same model and dosing (Table 2)) it was 644.91 mm^3. In addition, the Mean tumor volume was 999.58 mm^3 in assay [2] (Day 29, same model and dosing (Table 2)); 1395.65 mm^3 in assay [2] (Day 32, same model and dosing (Table 2)). Besides, the “Tumor inhibition (in words)” value in assay [2] (MC38 tumor-bearing C57BL/6 mice, Table 6, FIG. 1-3) is “tumor inhibition-promoting properties”.
